Patent publication US20100247538A1, “IL-18 and Protein Kinase R Inhibition for the Treatment of COPD” (Yale University, priority 2007, published 2010)
“Also recorded” adds a separate entry of the source.

How the values were obtained:
murine lung [1] = test: Alveolar remodeling / emphysema (mean chord length, lung morphometry); conditions: for tissue / alveolar remodeling: control or CS-exposed animals
murine lung [2] = test: BAL inflammation (BAL cell recovery) after PAMP administration in mice breathing room air or exposed to cigarette smoke; format: in vivo; conditions: for BAL inflammation: interaction with cigarette smoke (CS-exposed vs non-CS animals): CS exposure 2 weeks before and during dosing; for number of cells recovered per ml of BAL fluid: control (non-CS) animals, dose series
Description: During the first week they received a half cigarette, twice a day, to allow for acclimation. During the remainder of the exposure they received three cigarettes per day (one cigarette per session/three sessions per day).
(§1) CS exposure was continued during this interval.
Mice were sacrificed using intraperitoneal ketamine/xylazine injection and the trachea was cannulated and perfused with two 0.9 ml aliquots of cold saline. The cellular contents and BAL fluid were separated by centrifugation and the BAL fluid was stored in aliquots at −80° C.

murine lung [3] = test: TUNEL evaluation of lung cell apoptosis; format: in vivo, mice
Description: End labeling of exposed 3′-OH ends of DNA fragments in paraffin-embedded tissue was undertaken with the TUNEL in situ cell death detection kit AP (Roche Diagnostics) using the instructions provided by the manufacturer. Staining specificity was assessed by comparing the signal that was seen when terminal transferase was included and excluded from the reaction. After staining, a minimum of 20 fields of alveoli were randomly chosen, and 500 nuclei were counted per lung. The labeled cells were expressed as a percentage of total nuclei.
as §1
End labeling of exposed 3′-OH ends of DNA fragments in paraffin embedded tissue was undertaken with the TUNEL in situ cell death detection kit AP (Roche Diagnostics, Indianapolis, Ind.) using the instructions provided by the manufacturer. Staining specificity was assessed by comparing the signal that was seen when terminal transferase was included and excluded from the reaction. After staining, a minimum of 10 fields of alveoli was randomly chosen and 300 nuclei of structural cells were counted per lung. The labeled cells were expressed as a percentage of total nuclei.

IL-12/23 p40 = test: BAL IL-12/IL-23p40 ELISA; format: in vivo, mice; conditions: after second dose
Description: as §1
(§2) The levels of BAL IL-18 (MBL, Japan), IL-12/IL-23p40 and IFN-γ (R&D Systems) were determined using commercial ELISA kits as per the manufacturer's instructions.

IL-18 = test: BAL IL-18 ELISA; format: in vivo, mice
Description: Mice were euthanized, the trachea was isolated by blunt dissection, and tubing was secured in the airway. Three volumes of 0.6 ml of PBS were then instilled and gently aspirated and pooled. Each BAL fluid sample was centrifuged, and the supernatants were stored in −70° C. until used. Lung lysates were also prepared. The levels of IL-18 were determined using a commercial ELISA kit (R&D Systems) as per the manufacturer's instructions.
as §1, §2

[4] = test system: IL-18, IL-12/23 p40 and Type I and Type II IFNs; test: Production of IL-18, IL-12/23 p40 and Type I and Type II IFNs in BAL (stated jointly); format: in vivo, mice; conditions: versus vehicle controls
IFN-γ = test: BAL IFN-γ ELISA; format: in vivo, mice; conditions: for IFN-γ level: after second dose
Description: as §1, §2

PKR = test: Immunoblot of phospho-PKR in whole lung lysates; format: in vivo, mice
Description: as §1
Whole lung lysates were prepared and the total protein content of each was measured using the DC protein assay reagents (Bio-Rad Inc.). Equal amounts of sample proteins were fractionated on 4-15% SDS-PAGE gels under reducing conditions and transferred to polyvinylidene difluoride membranes. The membranes were then incubated in blocking buffer (5% w/v nonfat dry milk in TBS/0.05% Tween) for 1 hour at room temperature. The membranes were then incubated with primary antibodies overnight at 4° C., washed three times in TBS/0.05% Tween and incubated for 2 h at room temperature with appropriate secondary antibodies. Immunoreactive signal was detected using a chemiluminescent procedure (ECL Western blotting detection system; Amersham Life Science) according to the manufacturer's instructions.

`CCNCc1nc2c(N)nc3ccccc3c2n1CC(C)(C)O` [GDQ, gardiquimod] was tested. Which “tissue / alveolar remodeling” value (murine lung [1]) did it give?
Its value is “no effect; also recorded: did not have similar effects”.

What about the “BAL inflammation: interaction with cigarette smoke (CS-exposed vs non-CS animals)” value (murine lung [2]) of the same molecule?
The value was “not significantl”.

And the BAL inflammation (murine lung [2]; control animals, 5 μg doses)?
Its BAL inflammation is “no effect”.

`CC(C)Cn1cnc2c(N)nc3ccccc3c21` [IMQ, imiquimod] was tested. Which “tissue / alveolar remodeling” value (murine lung [1]) did it give?
Its value is “did not have similar effects”.

What does the source list for lipopoly-saccharide [LPS]?
tissue / alveolar remodeling (murine lung [1]): no tissue remodeling was observed; also recorded: did not have similar effects; BAL inflammation: interaction with cigarette smoke (CS-exposed vs non-CS animals) (murine lung [2]): not a significant difference; number of cells recovered per ml of BAL fluid (murine lung [2]): dose dependent

For poly(I:C), which TUNEL score (murine lung [3]; IL-18Rα+/+, IFN-γ+/+, PKR+/+ animals, CS) is on record?
The TUNEL score was “about 12%”.

What about the TUNEL score (murine lung [3]; IL-18Rα+/+, IFN-γ+/+, PKR+/+ animals, room air) of the same molecule?
The TUNEL score was “about 8%”.

And the TUNEL score (murine lung [3]; IL-18Rα−/−, IFN-γ−/− and PKR−/− animals, CS)?
The TUNEL score was “about 9%”.

What about the TUNEL value (murine lung [3]; IL-18Rα−/−, IFN-γ−/− and PKR−/− animals, room air) of the same molecule?
The TUNEL value was “about 6.5%”.

And the TUNEL score (murine lung [3]; combined with CS)?
Its TUNEL score is “about 17”.

What about the TUNEL score (murine lung [3]; given alone (no CS)) of the same molecule?
Its TUNEL score is “about 8”.

What about the IL-12/23 level (IL-12/23 p40; CS animals, relative to non-CS) of the same molecule?
The IL-12/23 level was “about twice that”.

And the IL-12/23 level (IL-12/23 p40; non-CS animals)?
The IL-12/23 level was “about 3000 pg/ml”.

What about the IL-18 level (IL-18; CS animals, second dose) of the same molecule?
Its IL-18 level is “about 100 pg/ml”.

What about the IL-18 level (IL-18; both CS and non-CS animals, by week 4) of the same molecule?
The IL-18 level was 90 to 100 pg/mL.

What about the IL-18 level (IL-18; non-CS animals, second dose) of the same molecule?
The IL-18 level was “about 20 pg/ml”.

What about the “stimulation of IL-18, IL-12/23 p40 and Type I and Type II IFNs” value [4] of the same molecule?
Its value is “potent stimulator”.

And the IFN-γ level (IFN-γ; CS animals)?
Its IFN-γ level is “about 90 pg/ml”.

What about the IFN-γ expression (IFN-γ; IL-18Rα−/− animals, CS) of the same molecule?
The IFN-γ expression was “about 35 pg/ml”.

What about the IFN-γ level (IFN-γ; control animals) of the same molecule?
Its IFN-γ level is “about 10 pg/ml”.

What about the IFN-γ expression (IFN-γ; wild-type animals, CS) of the same molecule?
Its IFN-γ expression is “about 110 pg/ml”.

And the IFN-γ expression (IFN-γ; wild-type animals, no CS)?
Its IFN-γ expression is “about 35 pg/ml”.

What about the “morphometrically determined alveolar chord length” value (murine lung [1]; 4 doses in CS-exposed mice) of the same molecule?
Its value is “significant increases”.

What about the “increase in alveolar size” value (murine lung [1]; 4 doses in RA-exposed mice) of the same molecule?
Its value is “did not achieve statistical significance”.

What about the “dose at which CS interaction on alveolar/airway remodeling could be appreciated” value (murine lung [1]; CS-exposed mice) of the same molecule?
Its value is no less than 15 µg.

What about the mean chord length (murine lung [1]; IL-18Rα−/− and IFN-γ−/− animals exposed to CS) of the same molecule?
The mean chord length was “about 70 microns”.

And the mean chord length (murine lung [1]; PKR (null) animals exposed to CS)?
The mean chord length was “about 70 microns”.

And the mean chord length (murine lung [1]; PKR+/+ animals exposed to CS)?
The mean chord length was “about 85 microns”.

What about the mean chord length (murine lung [1]; PKR+/+ animals, no CS) of the same molecule?
Its mean chord length is “about 65 microns”.

And the mean chord length (murine lung [1]; PKR−/− animals, no CS)?
The mean chord length was roughly 62 microns.

And the mean chord length (murine lung [1]; administered and exposed to CS, controls about 55 microns)?
Its mean chord length is “about 90 microns”.

And the mean chord length (murine lung [1]; wild-type, IL-18Rα−/− and IFN-γ−/− animals, no CS)?
The mean chord length was “about 60 microns”.

What about the “BAL inflammation: interaction with cigarette smoke (CS-exposed vs non-CS animals)” value (murine lung [2]) of the same molecule?
Its value is “significantly exacerbated; also recorded: synergistic”.

What about the “dose giving significant interaction with CS on inflammation” value (murine lung [2]; CS-exposed mice) of the same molecule?
The value was no less than 15 µg.

What about the “number of cells recovered per ml of BAL fluid” value (murine lung [2]) of the same molecule?
Its value is “dose dependent”.

And the “dose at which enhanced PKR activation was observed” value (PKR; CS-exposed mice)?
The value was no less than 15 µg/mL.

What about the phospho-PKR expression (PKR; wild-type animals, given alone) of the same molecule?
Its phospho-PKR expression is “modestly up-regulated”.

What about the “phospho-PKR expression / PKR activation” value (PKR; wild-type animals, with CS exposure) of the same molecule?
The value was “further increase; also recorded: greatly enhanced”.
